Test results taken from PubChem BioAssay AID2060883 (Molecular Pharmacology Branch, DTP, NCI, 2025).

Test system: 843782-103-R-J1-PDC complex spheroid viability
Experiment: Anticancer human tumor 843782-103-R-J1-PDC patient-derived lung adenocarcinoma cell line growth inhibition [RAS]
Settings: for IC50: curve of first compound; for viability, T/C: stronger effect = lower value
How it was run: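 Multi-cell-type spheroids: tumor cells plus HUVEC endothelial cells and mesenchymal stem cells. RAS-pathway inhibitors were combined with targeted agents, each dosed in half-log steps down from clinical Cmax, or from 10 microM when Cmax was unknown.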

[1] = second compound 0.00316 µM, first compound 0.0316 µM
[2] = second compound 0.00316 µM, first compound 0.1 µM
[3] = second compound 0.00316 µM, first compound 0.316 µM
[4] = second compound 0.00316 µM, first compound 1 µM
[5] = second compound 0.00316 µM, first compound 3.16 µM
[6] = second compound 0.00316 µM, first compound 10 µM
[7] = second compound 0.01 µM, first compound 0.0316 µM
[8] = second compound 0.01 µM, first compound 0.1 µM
[9] = second compound 0.01 µM, first compound 0.316 µM
[10] = second compound 0.01 µM, first compound 1 µM
[11] = second compound 0.01 µM, first compound 3.16 µM
[12] = second compound 0.01 µM, first compound 10 µM
[13] = second compound 0.0316 µM, first compound 0.0316 µM
[14] = second compound 0.0316 µM, first compound 0.1 µM
[15] = second compound 0.0316 µM, first compound 0.316 µM
[16] = second compound 0.0316 µM, first compound 1 µM
[17] = second compound 0.0316 µM, first compound 3.16 µM
[18] = second compound 0.0316 µM, first compound 10 µM
[19] = second compound 0.1 µM, first compound 0.0316 µM
[20] = second compound 0.1 µM, first compound 0.1 µM
[21] = second compound 0.1 µM, first compound 0.316 µM
[22] = second compound 0.1 µM, first compound 1 µM
[23] = second compound 0.1 µM, first compound 3.16 µM
[24] = second compound 0.1 µM, first compound 10 µM
[25] = second compound 0.316 µM, first compound 0.0316 µM
[26] = second compound 0.316 µM, first compound 0.1 µM
[27] = second compound 0.316 µM, first compound 0.316 µM
[28] = second compound 0.316 µM, first compound 1 µM
[29] = second compound 0.316 µM, first compound 3.16 µM
[30] = second compound 0.316 µM, first compound 10 µM
[31] = second compound 1 µM, first compound 0.0316 µM
[32] = second compound 1 µM, first compound 0.1 µM
[33] = second compound 1 µM, first compound 0.316 µM
[34] = second compound 1 µM, first compound 1 µM
[35] = second compound 1 µM, first compound 3.16 µM
[36] = second compound 1 µM, first compound 10 µM
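Further: viability read after seven days of compound exposure.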

CC1(O)CCCC1n1c(=O)c(C(F)F)cc2cnc(NC3CCN(S(C)(=O)=O)CC3)nc21 (stereo not given) + C=CC(=O)N1CCN(c2nc(OCC3CCCN3C)nc3c(F)c(-c4nc(N)cc(C)c4C(F)(F)F)c(Cl)cc23)C(C)C1
IC50 (second compound 0.00316 µM): 147 nM | IC50 (second compound 0.01 µM): 152 nM | IC50 (second compound 0.0316 µM): 96.4 nM | IC50 (second compound 0.1 µM): 126 nM | IC50 (second compound 0.316 µM): 140 nM | IC50 (second compound 1 µM): 138 nM | viability, T/C [1]: 84.9% | viability, T/C [2]: 61.6% | viability, T/C [3]: 27.7% | viability, T/C [4]: 24.3% | viability, T/C [5]: 24.2% | viability, T/C [6]: 2.56% | viability, T/C [7]: 81.2% | viability, T/C [8]: 61.4% | viability, T/C [9]: 28.2% | viability, T/C [10]: 29.2% | viability, T/C [11]: 21.7% | viability, T/C [12]: 3.18% | viability, T/C [13]: 75.9% | viability, T/C [14]: 49.9% | viability, T/C [15]: 24% | viability, T/C [16]: 27.5% | viability, T/C [17]: 19.6% | viability, T/C [18]: 2.81% | viability, T/C [19]: 78.7% | viability, T/C [20]: 59.2% | viability, T/C [21]: 24.4% | viability, T/C [22]: 27.2% | viability, T/C [23]: 23% | viability, T/C [24]: 2.61% | viability, T/C [25]: 86% | viability, T/C [26]: 58.8% | viability, T/C [27]: 26.2% | viability, T/C [28]: 28.5% | viability, T/C [29]: 25.2% | viability, T/C [30]: 2.69% | viability, T/C [31]: 84.1% | viability, T/C [32]: 54.1% | viability, T/C [33]: 33.1% | viability, T/C [34]: 25.1% | viability, T/C [35]: 17.2% | viability, T/C [36]: 2.07%

CCC(CC)c1cc(NC2CCC(N)C2)n2nccc2n1 (stereo not given) + C=CC(=O)N1CCN(c2nc(OCC3CCCN3C)nc3c(F)c(-c4nc(N)cc(C)c4C(F)(F)F)c(Cl)cc23)C(C)C1
IC50 (second compound 0.00316 µM): 1420 nM | IC50 (second compound 0.01 µM): 1500 nM | IC50 (second compound 0.0316 µM): 1420 nM | IC50 (second compound 0.1 µM): 1480 nM | IC50 (second compound 0.316 µM): 1420 nM | IC50 (second compound 1 µM): 1630 nM | viability, T/C [1]: 99.4% | viability, T/C [2]: 87.9% | viability, T/C [3]: 91.9% | viability, T/C [4]: 71.3% | viability, T/C [5]: 1.31% | viability, T/C [6]: 0.48% | viability, T/C [7]: 94.5% | viability, T/C [8]: 88.3% | viability, T/C [9]: 84.7% | viability, T/C [10]: 76.2% | viability, T/C [11]: 1.43% | viability, T/C [12]: 0.54% | viability, T/C [13]: 91.6% | viability, T/C [14]: 88.5% | viability, T/C [15]: 83.3% | viability, T/C [16]: 71.2% | viability, T/C [17]: 1.09% | viability, T/C [18]: 0.49% | viability, T/C [19]: 79.9% | viability, T/C [20]: 87.6% | viability, T/C [21]: 90.6% | viability, T/C [22]: 75.3% | viability, T/C [23]: 1.17% | viability, T/C [24]: 0.4% | viability, T/C [25]: 91.7% | viability, T/C [26]: 84.8% | viability, T/C [27]: 88.6% | viability, T/C [28]: 71% | viability, T/C [29]: 1.54% | viability, T/C [30]: 0.46% | viability, T/C [31]: 88.4% | viability, T/C [32]: 87.1% | viability, T/C [33]: 88.7% | viability, T/C [34]: 86.1% | viability, T/C [35]: 0.8% | viability, T/C [36]: 0.59%

CCN1CCN(Cc2ccc(Nc3ncc(F)c(-c4cc(F)c5nc(C)n(C(C)C)c5c4)n3)nc2)CC1 + C=CC(=O)N1CCN(c2nc(OCC3CCCN3C)nc3c(F)c(-c4nc(N)cc(C)c4C(F)(F)F)c(Cl)cc23)C(C)C1
IC50 (second compound 0.00316 µM): 988 nM | IC50 (second compound 0.01 µM): 471 nM | IC50 (second compound 0.0316 µM): 697 nM | IC50 (second compound 0.1 µM): 764 nM | IC50 (second compound 0.316 µM): > 1000 nM | IC50 (second compound 1 µM): 836 nM | viability, T/C (second compound 0.00316 µM, first compound 0.00316 µM): 86.1% | viability, T/C (second compound 0.00316 µM, first compound 0.01 µM): 93.4% | viability, T/C [1]: 88.5% | viability, T/C [2]: 86.3% | viability, T/C [3]: 68.1% | viability, T/C [4]: 49.8% | viability, T/C (second compound 0.01 µM, first compound 0.00316 µM): 88.4% | viability, T/C (second compound 0.01 µM, first compound 0.01 µM): 86.6% | viability, T/C [7]: 86.3% | viability, T/C [8]: 74.9% | viability, T/C [9]: 53.8% | viability, T/C [10]: 43% | viability, T/C (second compound 0.0316 µM, first compound 0.00316 µM): 83.1% | viability, T/C (second compound 0.0316 µM, first compound 0.01 µM): 83.7% | viability, T/C [13]: 81.4% | viability, T/C [14]: 79.8% | viability, T/C [15]: 65.5% | viability, T/C [16]: 42.2% | viability, T/C (second compound 0.1 µM, first compound 0.00316 µM): 89.5% | viability, T/C (second compound 0.1 µM, first compound 0.01 µM): 81% | viability, T/C [19]: 81.5% | viability, T/C [20]: 80% | viability, T/C [21]: 60.7% | viability, T/C [22]: 46.7% | viability, T/C (second compound 0.316 µM, first compound 0.00316 µM): 88.9% | viability, T/C (second compound 0.316 µM, first compound 0.01 µM): 86% | viability, T/C [25]: 83.7% | viability, T/C [26]: 71.9% | viability, T/C [27]: 62.5% | viability, T/C [28]: 57.7% | viability, T/C (second compound 1 µM, first compound 0.00316 µM): 91.1% | viability, T/C (second compound 1 µM, first compound 0.01 µM): 83.2% | viability, T/C [31]: 86.7% | viability, T/C [32]: 78.3% | viability, T/C [33]: 63.5% | viability, T/C [34]: 47.5%

C[C@@H](NC(=O)c1ncnc(N)c1Cl)c1ncc(C(=O)Nc2cc(C(F)(F)F)c(Cl)cn2)s1 + C=CC(=O)N1CCN(c2nc(OCC3CCCN3C)nc3c(F)c(-c4nc(N)cc(C)c4C(F)(F)F)c(Cl)cc23)C(C)C1
IC50 (second compound 0.00316 µM): > 10000 nM | IC50 (second compound 0.01 µM): > 10000 nM | IC50 (second compound 0.0316 µM): > 10000 nM | IC50 (second compound 0.1 µM): > 10000 nM | IC50 (second compound 0.316 µM): > 10000 nM | IC50 (second compound 1 µM): > 10000 nM | viability, T/C [1]: 92.2% | viability, T/C [2]: 84.3% | viability, T/C [3]: 92.1% | viability, T/C [4]: 91.4% | viability, T/C [5]: 106% | viability, T/C [6]: 84.9% | viability, T/C [7]: 85.2% | viability, T/C [8]: 84.2% | viability, T/C [9]: 88.4% | viability, T/C [10]: 88.5% | viability, T/C [11]: 91.9% | viability, T/C [12]: 91.8% | viability, T/C [13]: 87.5% | viability, T/C [14]: 79.8% | viability, T/C [15]: 87% | viability, T/C [16]: 84.9% | viability, T/C [17]: 94.5% | viability, T/C [18]: 89.1% | viability, T/C [19]: 90.7% | viability, T/C [20]: 83.7% | viability, T/C [21]: 87.3% | viability, T/C [22]: 90.8% | viability, T/C [23]: 91.5% | viability, T/C [24]: 88.7% | viability, T/C [25]: 88.5% | viability, T/C [26]: 87.9% | viability, T/C [27]: 90.4% | viability, T/C [28]: 86.6% | viability, T/C [29]: 95.7% | viability, T/C [30]: 91.8% | viability, T/C [31]: 82.7% | viability, T/C [32]: 92.2% | viability, T/C [33]: 97% | viability, T/C [34]: 85.3% | viability, T/C [35]: 92.5% | viability, T/C [36]: 87.3%

Cc1nc(N2CCC3(CC2)COC(C)C3N)c(CO)nc1Sc1ccnc(N)c1Cl (stereo not given) + C=CC(=O)N1CCN(c2nc(OCC3CCCN3C)nc3c(F)c(-c4nc(N)cc(C)c4C(F)(F)F)c(Cl)cc23)C(C)C1
IC50 (second compound 0.00316 µM): 211 nM | IC50 (second compound 0.01 µM): 385 nM | IC50 (second compound 0.0316 µM): 200 nM | IC50 (second compound 0.1 µM): 311 nM | IC50 (second compound 0.316 µM): 277 nM | IC50 (second compound 1 µM): 313 nM | viability, T/C [1]: 88.9% | viability, T/C [2]: 58.6% | viability, T/C [3]: 47.4% | viability, T/C [4]: 32.8% | viability, T/C [5]: 32.5% | viability, T/C [6]: 27.2% | viability, T/C [7]: 79.5% | viability, T/C [8]: 66.8% | viability, T/C [9]: 51.4% | viability, T/C [10]: 37.4% | viability, T/C [11]: 35.6% | viability, T/C [12]: 22.6% | viability, T/C [13]: 77.7% | viability, T/C [14]: 57.6% | viability, T/C [15]: 45.8% | viability, T/C [16]: 36.2% | viability, T/C [17]: 30.5% | viability, T/C [18]: 32.1% | viability, T/C [19]: 70% | viability, T/C [20]: 61.4% | viability, T/C [21]: 51.5% | viability, T/C [22]: 35% | viability, T/C [23]: 35.1% | viability, T/C [24]: 27.1% | viability, T/C [25]: 85.7% | viability, T/C [26]: 67% | viability, T/C [27]: 48% | viability, T/C [28]: 34.2% | viability, T/C [29]: 35.5% | viability, T/C [30]: 26.9% | viability, T/C [31]: 80.6% | viability, T/C [32]: 64.3% | viability, T/C [33]: 49.7% | viability, T/C [34]: 40.2% | viability, T/C [35]: 31.1% | viability, T/C [36]: 29.7%
